These results are taken from US8357350B2, “Annulus fibrosus detection in intervertebral discs using molecular imaging agents” (General Electric Company, priority 2009, dated 2013).

The nature of data set [1]: Fluorescence quantum yield versus Alexa Fluor 555 reference. It is filed as physicochemical. Particulars: highest in FBS among DMSO, MeOH, PBS. The method, then:
Absorbance and fluorescence spectra of the FM fluorophores were measured in PBS and absolute methanol (MeOH) using fiber-optic HR2000 (200-1100 nm) and USB2000FL (350-1000 nm) spectrometers (Ocean Optics, Dunedin, Fla.), respectively. Fluorescence excitation was provided by a 2 mW, 532 nm laser diode. The fluorescence and absorbance spectra of FORMULA II and FORMULA IA were collected in dimethyl sulfoxide (DMSO) and fetal bovine serum (FBS), as well as MeOH and PBS. The quantum yield of FORMULA II and FORMULA IA in DMSO, MeOH, FBS and PBS was measured by comparing the integrated fluorescence emission of the fluorophores in each solvent to the emission of Alexa Fluor 555 (Invitrogen) in PBS (quantum yield=10%) as a reference standard under conditions of matched absorbance at the excitation wavelength. The LogD of each FM fluorophore at pH 7.5 was calculated using Marvin 5.0.3 software (ChemAxon, Budapest, Hungary).

In data set [2] the test system is intervertebral discs. Briefly: Two-wavelength imaging of resected spine with Pam800 and FORMULA IA. It is filed as in vivo, Sprague-Dawley rat. Particulars: rat. The protocol: Imaging was carried out at near infrared wavelenghts using a 400- to 700-nm “white” light (0.5 mW/cm^2) and a 725- to 775-nm NIR fluorescence excitation light (5 mW/cm^2). Fluorescence images were collected using exposure times ranging from 500 to 2000 msec. All images collected for comparison between vehicle-injected control animals and FM fluorophore-injected animals had the same exposure time and normalization. Color video images were collected on a separate optical channel using custom designed software. The excitation and emission LEDs and filter used for the FM fluorophores and Pam800 in the intraoperative imaging system are described as follows. For fluorescence excitation of FM 1-43, FM 2-10, FM 1-43FX and Formula IA, sixty 5-mm 470 nm LEDs (Epitex, Inc., Kyoto, Japan) fitted with 470±20 nm band pass (BP) excitation filters (Chroma Technology, Rockingham, Vt.) in custom holders were used, which produced a fluence rate on the imaging surface of 0.56 mW/cm^2. For fluorescence excitation of Formula II, FM 4-64, FM 4-64FX and FM 5-95, sixty 5-mm 535 nm LEDs fitted with 525±25 nm BP excitation filters were used, which produced a fluence rate on the imaging surface of 0.34 mW/cm^2. A 610±38 nm BP filter was used to detect fluorescence emission of FM 1-43, FM 2-10, Formula II, FM 1-43FX and Formula IA. […]

For data set [3], the system named is dorsal root ganglia. Kind of data set: FM fluorophore uptake, intraoperative fluorescence imaging. To be noted: 5 mg/kg mice, 0.5 mg/kg rats IP, 16 hours before imaging; signal normalized to muscle, vs vehicle control. It is filed as in vivo, mice and rats. The protocol: (§1) Imaging was carried out at near infrared wavelenghts using a 400- to 700-nm “white” light (0.5 mW/cm^2) and a 725- to 775-nm NIR fluorescence excitation light (5 mW/cm^2). Fluorescence images were collected using exposure times ranging from 500 to 2000 msec. All images collected for comparison between vehicle-injected control animals and FM fluorophore-injected animals had the same exposure time and normalization. Color video images were collected on a separate optical channel using custom designed software. The excitation and emission LEDs and filter used for the FM fluorophores and Pam800 in the intraoperative imaging system are described as follows. For fluorescence excitation of FM 1-43, FM 2-10, FM 1-43FX and Formula IA, sixty 5-mm 470 nm LEDs ([…], Inc., Kyoto, Japan) fitted with 470±20 nm band pass (BP) excitation filters (Chroma Technology, Rockingham, Vt.) in custom holders were used, which produced a fluence rate on the imaging surface of 0.56 mW/cm^2. For fluorescence excitation of Formula II, FM 4-64, FM 4-64FX and FM 5-95, sixty 5-mm 535 nm LEDs fitted with 525±25 nm BP excitation filters were used, which produced a fluence rate on the imaging surface of 0.34 mW/cm^2. A 610±38 nm BP filter was used to detect fluorescence emission of FM 1-43, FM 2-10, Formula II, FM 1-43FX and Formula IA. To detect fluorescence emission of FM 4-64, FM 4-64FX and FM 5-95 a 720 nm long pass (LP) filter was used. For fluorescence excitation of Pam800, 348 5-mm 760 nm LEDs fitted with 764±17 nm BP excitation filters were used, which produced a fluence rate on the imaging surface of 8.73 mW/cm^2 and fluorescence emission was detected using a 824±24 nm BP emission filter. To assess the structure-activity relationship of the FM fluorophores, each molecule was administered at 5 mg/kg to mice and 0.5 mg/kg to rats (n=4 per group) in 10% DMSO and 90% PBS IP 16 hours before imaging with the intraoperative system. The fluorescence signal from the spinal cord, intervertebral discs, dorsal root ganglia, trigeminal ganglia, optic nerve, brain and femoral nerve were normalized to muscle signal in the same image. This normalization ratio was then compared between FM fluorophore-injected animals and vehicle-injected control animals.

In data set [4] the test system is intervertebral discs. The data set is described as above. It is filed as in vivo, mice and rats. The protocol: as §1
Data set [5] relates to trigeminal ganglia. The data set is described as above. Type of data set: in vivo, mice and rats. To be noted: 5 mg/kg mice, 0.5 mg/kg rats IP, 16 hours before imaging; signal normalized to muscle, vs vehicle control. The method, then:
as §1
Wherever Uptake: Dorsal Root Ganglia is given: key: +: Positive contrast was concluded if the nerve-to-muscle contrast ratio of FM fluorophore-injected animals was elevated relative to control animals.
Wherever Uptake: Intervertebral Disc is given: key: +: Positive contrast was concluded if the nerve-to-muscle contrast ratio of FM fluorophore-injected animals was elevated relative to control animals.
Wherever Uptake: Trigeminal Ganglia is given: key: +: Positive contrast was concluded if the nerve-to-muscle contrast ratio of FM fluorophore-injected animals was elevated relative to control animals.

Consider `CCCCN(CCCC)c1ccc(/C=C/c2cc[n+](CCC[N+](C)(C)C)cc2)cc1.[Br-].[Br-]` [Formula IA, (E)-4-(4-(dibutylamino)styryl)-1-(3-(trimethylammonio)propyl)pyridinium dibromide], for which, in data set [1], the “fluorescence quantum yield, times higher in FBS” value amounted to 5 times. In addition, the “overlap of signals with Pam800 (bone)” value in data set [2] (7.5 nmol Pam800 16 h and 2 mg/kg Formula IA 4 h post-IV) is “no overlap”. Besides, in data set [2] (2 mg/kg IV, 4 h, sagittal spine and disc cross-section), the “specificity of fluorescence signal in the spine” value is “specific for the intervertebral discs”. The “Uptake: Dorsal Root Ganglia” value in data set [3] is recorded as “+”. Also, the “Uptake: Intervertebral Disc” value in data set [4] (5 mg/kg mice, 0.5 mg/kg rats IP, 16 hours before imaging, signal normalized to muscle, vs vehicle control) is “+”. Moreover, in data set [4] (IP administration to mice and rats), the “contrast in the intervertebral discs” value is recorded as “positive contrast”. In addition, the “Uptake: Trigeminal Ganglia” value in data set [5] was “+”.
